# Data reported in patent US20210045420A1, “SWEETENER AND FLAVOR COMPOSITIONS, METHODS OF MAKING AND METHODS OF USE THEREOF” (EPC Natural Products Co., Ltd., priority 2018, published 2021).
# “Also recorded” adds a separate entry of the source. Residues, ends and D or L forms follow the SMILES beside them.
# Legend:
# [1] = Sensory evaluation of the samples prepared in Example 50 (Example 52; panel of 4, score 0-5 or +/++/+++); assay type: in vivo, human; set-up: key to Intensity of Smell: “+” for slight; “++” for moderate; “+++” for very strong
# Method: The reaction partner (amino acid, carbohydrate source) were dissolved/suspended in the reaction solvent and transferred into a glass beaker filled with sand pre-heated for at least 30 minutes at the reaction temperature in a drying oven. After the planned reaction time, the vials were transferred into ice water. After cooling to room temperature, sensory analysis and analytical characterization was performed.
# For evaluation of the taste profile, the samples were tested by a panel of four people. 1 trained taster tasted independently the samples first. The taster was asked to describe the taste profile and score 0-5 according to the increasing sugar likeness, bitterness, aftertaste and lingering taste profiles. The first taster was allowed to re-taste, and then make notes for the sensory attributes perceived. Afterwards, another 3 tasters tasted and the attributes were noted and discussed openly to find a suitable description. In case that more than 1 taster disagreed with the results, the tasting was repeated. In some sensory test results (above), the taste rating was expressed by “+”, which means the intensity of the factors is shown by three levels. “+” for slight, “++” for moderate and “+++” for very strong.
# [2] = Sensory evaluation of GSGs and SGs, thaumatin, NHDC and combinations, Example 255; details: combinations of EPCalin (Thaumatin 45%) and NHDC dissolved in water
# Method: 4.5 ppm Thaumatin (equivalent to 10 ppm EPCalin) was dissolved in water. Increasing amounts of NHDC (1-5 ppm) were added to the solution and the sensory properties were evaluated.
# 50 ppm (GSGs and SGs) were dissolved in water. Increasing amounts of NHDC (1-5 ppm) were added to the solution and the sensory properties were evaluated.
# 50 ppm (GSGs and SGs) and 4.5 ppm Thaumatin (equivalent to 10 ppm EPCalin) were dissolved in water. Increasing amounts of NHDC (1-5 ppm) were added to the solution and the sensory properties were evaluated.
# Sweetness intensity was rated on 5-point scale
# Sweetness intensity was rated on a 5-point scale
# [3] = sweetness depends on the tested concentration compared with sucrose; cited from earlier work
# [4] = Assay to test DPPH radical-scavenging activity, Example 65; assay type: biochemical; details: Reb-A with or without amino acids, 100° C., FIG. 49 and FIG. 50
# Method: 1 mg 1,1-Diphenyl-2-picrylhydrazyl radical (DPPH)/ml ethanol, dilution to assay concentration were prepared in ethanol (40 μg/mL); Calibration samples were prepared with Ascorbic acid in a concentration of 0-10 μg/mL; as a negative control sample, water was used.
# Samples in aqueous solution were used as such or diluted with water.
# A 0.1 ml sample (or calibration standard) was mixed with 3.9 ml solution of DPPH (100 μMolar) and reacted while protected from light at room temperature for 30 min. Absorbance was determined at 517 nm against ethanol.
# 10 mM of amino acid and/or 10 mM sugar were dissolved in 10 ml 0.1 mM KH2PO4-buffer, pH=7.8.
# The samples were kept at 100° C. in sealed glass vials (Pyrex 15 ml with screw caps) for 0 (before reaction), 2.5 or 5.0 hours. Thereafter the samples were transferred to an ice water bath and cooled down to room temperature. These samples were diluted 1:10 and used for the test assay for anti-oxidant potential.
# [5] = Table 52.2, reaction in 1 ml water + 9 ml Glycerin, 0.67 h, 100° C. (Table 50.2)
# [6] = Table 52.5, reaction in 1 ml water + 9 ml Glycerin, 2.0 h, 120° C. (Table 50.5)
# [7] = Table 52.3, reaction in 1 ml water + 9 ml Glycerin, 0.67 h, 100° C. (Table 50.3)
# [8] = Table 52.1, samples prepared in Example 50
molecule,measurement,setting,value
C[C@H](N)C(=O)O [0.1 mMol Ala],Smell,[1]; [5],Agar
same,Taste,[1]; [5],sweet
O=C[C@H](O)[C@H]1OC(=O)[C@@H](O)[C@H]1O [0.1 mMol GlucLac],Intensity of Smell,[1]; [6],+++
same,Smell,[1]; [6],Burnt sugar
same,Taste,[1]; [6],Bitter
NCCCC[C@H](N)C(=O)O [0.1 mMol Lys],Smell,[1]; [7],Popcorn
same,Taste,[1]; [7],Sweet
N[C@@H](Cc1ccccc1)C(=O)O [0.1 mMol Phe],Smell,[1]; [5],"flowery/bloomy,; also recorded: caramel"
same,Taste,[1]; [5],sweet
same,Intensity of Smell,[1]; [6],+
same,Smell,[1]; [6],"Caramel, burnt"
same,Taste,[1]; [6],sweet
C=C1C[C@@]23CC[C@H]4[C@@](C)(CCC[C@@]4(C)C(=O)O[C@@H]4O[C@H](CO)[C@@H](O)[C@H](O)[C@H]4O)[C@@H]2CC[C@]1(O[C@@H]1O[C@H](CO)[C@@H](O)[C@H](O[C@@H]2O[C@H](CO)[C@@H](O)[C@H](O)[C@H]2O)[C@H]1O[C@@H]1O[C@H](CO)[C@@H](O)[C@H](O)[C@H]1O)C3 [0.05 mMol Reb-A],Smell,[1]; [5],neutral/unpleasant
same,Taste,[1]; [5],sweet
COc1ccc(CCC(=O)c2c(O)cc(O[C@@H]3O[C@H](CO)[C@@H](O)[C@H](O)[C@H]3O[C@@H]3O[C@@H](C)[C@H](O)[C@@H](O)[C@H]3O)cc2O)cc1O [10 ppm NHDC],Sensory evaluation,[2],"Sweet, steep onset of sweetness, no lingering"
N[C@@H](CCC(=O)O)C(=O)O [167 mMol Glu],Smell,[1]; [8],caramel
same,Taste,[1]; [8],Sweet
COC(=O)[C@H](Cc1ccccc1)NC(=O)[C@@H](N)CC(=O)O [Aspartame] (H-Asp-Phe-OMe),times sweeter than sucrose / sugar,[3],160-200 times
OC[C@@H](O)[C@@H](O)[C@H](O)[C@H](O)CO [Mannitol],times sweeter than sucrose / sugar,[3],0.55-0.65 times
N[C@@H](Cc1ccccc1)C(=O)O [Phe 60 mMol],Smell,[1]; [8],flowery/bloomy-caramel
same,Taste,[1]; [8],Sweet
"C=C1C[C@@]23CC[C@H]4[C@@](C)(CCC[C@@]4(C)C(=O)O[C@@H]4O[C@H](CO)[C@@H](O)[C@H](O)[C@H]4O)[C@@H]2CC[C@]1(O[C@@H]1O[C@H](CO)[C@@H](O)[C@H](O[C@@H]2O[C@H](CO)[C@@H](O)[C@H](O)[C@H]2O)[C@H]1O[C@@H]1O[C@H](CO)[C@@H](O)[C@H](O)[C@H]1O)C3 [Reb-A, Rebaudioside A]",anti-oxidant properties,[4],substantial anti-oxidant properties
C=C1C[C@@]23CC[C@H]4[C@@](C)(CCC[C@@]4(C)C(=O)O[C@@H]4O[C@H](CO)[C@@H](O)[C@H](O)[C@H]4O)[C@@H]2CC[C@]1(O[C@@H]1O[C@H](CO)[C@@H](O)[C@H](O)[C@H]1O)C3 [Rubusoside],times sweeter than sucrose / sugar,[3],200 times
C[C@H](CC[C@@H](O[C@@H]1O[C@H](CO)[C@@H](O)[C@H](O)[C@H]1O[C@@H]1O[C@H](CO)[C@@H](O)[C@H](O)[C@H]1O)C(C)(C)O)[C@H]1CC[C@@]2(C)[C@H]3CC=C4[C@@H](CC[C@H](O[C@@H]5O[C@H](CO[C@@H]6O[C@H](CO)[C@@H](O)[C@H](O)[C@H]6O)[C@@H](O)[C@H](O)[C@H]5O)C4(C)C)[C@]3(C)[C@H](O)C[C@]12C [mogroside IV],times sweeter than sucrose / sugar,[3],126 times
C[C@H](CC[C@@H](O[C@@H]1O[C@H](CO[C@@H]2O[C@H](CO)[C@@H](O)[C@H](O)[C@H]2O)[C@@H](O)[C@H](O)[C@H]1O[C@@H]1O[C@H](CO)[C@@H](O)[C@H](O)[C@H]1O)C(C)(C)O)[C@H]1CC[C@@]2(C)[C@@H]3CC=C4[C@@H](CC[C@H](O[C@@H]5O[C@H](CO[C@@H]6O[C@H](CO)[C@@H](O)[C@H](O)[C@H]6O)[C@@H](O)[C@H](O)[C@H]5O)C4(C)C)[C@]3(C)[C@H](O)C[C@]12C [mogroside V],times sweeter than sucrose / sugar,[3],256-344 times
O=S(=O)([O-])NC1CCCCC1.[Na+] [sodium cyclamate],times sweeter than sucrose / sugar,[3],about 30 times
OC[C@H]1O[C@H](O[C@]2(CCl)O[C@H](CCl)[C@@H](O)[C@@H]2O)[C@H](O)[C@@H](O)[C@H]1Cl [sucralose],times sweeter than sucrose / sugar,[3],about 600 times
Thaumatin,times sweeter than sucrose / sugar,[3],about 2000 times
